The values that follow come from US20230295159A1, “ATX INHIBITOR, AND PREPARATION METHOD THEREFOR AND USE THEREOF” (SUZHOU ARK BIOPHARMACEUTICAL CO., LTD., priority 2020, published 2023).

Data set [1] has as its target ATX enzyme (Homo sapiens (Human), UniProt Q13822). Kind of data set: ATX enzyme activity inhibition assay. Format: biochemical. As to conditions: 16:0-LPC substrate, Amplex UltraRed fluorescence. The procedure:
The tested compounds were dissolved with dimethyl sulfoxide (DMSO) to prepare 20 mM of stock solutions, the stock solutions were subjected to 4-fold gradient dilutions with DMSO, with the initial concentration of 20 µM and a total of 8 concentration gradients. 20 nL of diluted compound was transferred to a 384-well plate using Echo 550 and 5 µL of ATX enzyme solution formulated with 4 × Tris-HCl reaction buffer to the well, then the 384-well plate was centrifuged at 1000 rpm for 1 min and […] pre-incubated at room temperature for 15 min. Subsequently, 5 µL of 16:0-LPC foumulated with the above 4 × reaction buffer and 10 µL of assay solution containng 2 × Amplex UltraRed reagent, choline oxidase and horseradish peroxidase (HRP) foumulated with the same reaction buffer were added to each well, then the 384-well plate was centrifugated at 1000 rpm for 1 min. The fluorescence signals were read at an excitation wavelength of 530 nm and an emission wavelength of 590 nm by Synergy 2 microplate reader. The inhibition rate of the compound against enzyme reaction was calculated according to the fluorescence intensity ratio, and IC50 of the compound was analysed and calculated by GraphPad Prism 5 software.

Data set [2] can be described thus: Rat pharmacokinetic study. The data set is classed as in vivo, SD rat. To be noted: for F: PO 10 mg/kg vs IV 2 mg/kg; for AUC(0-inf) / AUC(0-t) / Cmax / half-life / Tmax: SD, plasma; for half-life: read-out: t½ (converted). On the procedure: SD rat pharmacokinetic study was performed on several compounds in Examples of the present disclosure through a single intravenous injection (IV, at a dose of 2 mg/kg) and a single oral administration (PO, at a dose of 10 mg/kg), and blood samples were taken before administration and 5 min, 15 min, 30 min, 1 h, 2 h, 4 h, 8 h, 12 h and 24 h after administration, respectively, to determine the plasma concentration of the compound for assay. The pharmacokinetic data of control compound and the compounds in Examples 17, 26, 28 and 29 of the present disclosure in rat plasma are shown in Tables 4-8.

The target in data set [3] is hERG potassium channel (Homo sapiens (Human), UniProt Q12809). Kind of data set: hERG inhibition assay (manual whole-cell patch clamp). Format: cell-based. To be noted: hERG tail current, stable transfected cell line. The procedure:
Rapid activation of human delayed rectifier potassium current (IKr) is mainly mediated by hERG ion channel and participates in repolarization of human cardiomyocytes. Blocking this current with drugs will lead to QT interval prolongation syndrome in clinical practice, which will easily induce acute arrhythmia and even sudden death.
Experimental method: a whole-cell patch clamp technique was used to record hERG current. The cell suspension was added to a small petri dish and placed on an inverted microscope stage. After adherence, the cells were perfused with extracellular fluid at a recommended flow rate of 1-2 mL/min. The glass microelectrode was drawn by a microelectrode drawing instrument in two steps, and the resistance thereof after filling the electrode interior liquid was 2-5 MΩ. After the whole-cell recording mode was set up, the clamping potential was maintained at -80 mV. The depolarization voltage was applied to +60 mV for 850 ms, and then repolarized to -50 mV for 1275 ms to induce hERG tail current. Such a set of pulse programming was repeated every 15 seconds throughout the experiment. After the current was stable, the drug was administered by extracellular continuous perfusion from low concentration to high concentration. Starting from low concentration, perfusion continued until the drug effect was stable, then perfusion at the next concentration was performed. In this experiment, the blocking effect on hERG tail current was tested for the test objects at different concentrations and the positive control (N ≥ 2). Then, stimulus generation and signal acquisition were carried out by PatchMaster software; and a signal was amplified with a patch clamp amplifier. FitMaster, EXCEL, Graphpad Prism, SPSS 21.0, etc. were used for further data analysis and curve fitting. In data processing, when determining the blocking effect on hERG, the peak and baseline of tail current were calibrated. The inhibition rate (IR) of tail current was used to express the effect of the compounds at different concentrations.
IR = 100% × (peak of tail current before administration - peak of tail current after administration)/peak of tail current before administration.
IC50 was obtained by fitting the Hill equation (if applicable), if the maximum inhibition rate of the test object at all concentrations was less than 50%, then IC50 was not calculated. [00500]
On the technique in general: Block of hERG is tested as a sign of cardiac risk.

The target of data set [4] is 3A4 subtype of CYP450 enzyme (Homo sapiens (Human), UniProt P08684). Kind of data set: 3A4 subtype of CYP450 enzyme time-dependent inhibition assay (IC50 shift). Format: in vitro ADME. As to conditions: both IC50 values above top concentration; testosterone substrate; read-out: IC50 against 3A4 subtype (both groups, pre-incubated with and without NADPH). The procedure: The probe substrate was testosterone at a concentration of 50 µM. The reaction was terminated after incubation for 10 min. The IC50 of the compound against enzyme was calculated by measuring the relative yield of metabolite, and the IC50 shift was calculated from the IC50 results of the groups pre-incubated with and without addition of NADPH.

Broadly, the pIC50 is the IC50 on a negative log10 scale, so that one unit is a factor of ten. Broadly, the AUC(0-inf) is total exposure, with the tail of the curve extrapolated. By AUC(0-t) is commonly meant the area under the concentration-time curve up to a stated or last time point. What is called Cmax is the peak of the concentration-time curve. Broadly, the Tmax is the time at which the peak concentration occurs.

Structures are written as SMILES. pIC50: −log10 of the molar value. Like-named read-outs stand apart in the source and are kept apart here. A value given as a limit tells only on which side of the number the result lay.

Chain of 3A4 subtype of CYP450 enzyme (P08684 whole entry): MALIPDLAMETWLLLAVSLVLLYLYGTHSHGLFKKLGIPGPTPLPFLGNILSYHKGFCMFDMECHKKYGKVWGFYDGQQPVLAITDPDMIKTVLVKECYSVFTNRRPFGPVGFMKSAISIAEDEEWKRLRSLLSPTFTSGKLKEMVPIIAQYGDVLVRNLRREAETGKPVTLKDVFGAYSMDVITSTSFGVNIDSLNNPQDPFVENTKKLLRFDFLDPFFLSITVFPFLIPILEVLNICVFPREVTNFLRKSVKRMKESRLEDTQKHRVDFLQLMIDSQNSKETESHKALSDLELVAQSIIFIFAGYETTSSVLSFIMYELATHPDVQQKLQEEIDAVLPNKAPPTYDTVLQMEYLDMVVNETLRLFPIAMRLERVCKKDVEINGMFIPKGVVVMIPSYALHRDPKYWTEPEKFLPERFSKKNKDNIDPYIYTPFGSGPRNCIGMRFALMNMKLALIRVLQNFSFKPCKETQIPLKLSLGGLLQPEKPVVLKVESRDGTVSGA
Chain of hERG potassium channel (Q12809 whole entry): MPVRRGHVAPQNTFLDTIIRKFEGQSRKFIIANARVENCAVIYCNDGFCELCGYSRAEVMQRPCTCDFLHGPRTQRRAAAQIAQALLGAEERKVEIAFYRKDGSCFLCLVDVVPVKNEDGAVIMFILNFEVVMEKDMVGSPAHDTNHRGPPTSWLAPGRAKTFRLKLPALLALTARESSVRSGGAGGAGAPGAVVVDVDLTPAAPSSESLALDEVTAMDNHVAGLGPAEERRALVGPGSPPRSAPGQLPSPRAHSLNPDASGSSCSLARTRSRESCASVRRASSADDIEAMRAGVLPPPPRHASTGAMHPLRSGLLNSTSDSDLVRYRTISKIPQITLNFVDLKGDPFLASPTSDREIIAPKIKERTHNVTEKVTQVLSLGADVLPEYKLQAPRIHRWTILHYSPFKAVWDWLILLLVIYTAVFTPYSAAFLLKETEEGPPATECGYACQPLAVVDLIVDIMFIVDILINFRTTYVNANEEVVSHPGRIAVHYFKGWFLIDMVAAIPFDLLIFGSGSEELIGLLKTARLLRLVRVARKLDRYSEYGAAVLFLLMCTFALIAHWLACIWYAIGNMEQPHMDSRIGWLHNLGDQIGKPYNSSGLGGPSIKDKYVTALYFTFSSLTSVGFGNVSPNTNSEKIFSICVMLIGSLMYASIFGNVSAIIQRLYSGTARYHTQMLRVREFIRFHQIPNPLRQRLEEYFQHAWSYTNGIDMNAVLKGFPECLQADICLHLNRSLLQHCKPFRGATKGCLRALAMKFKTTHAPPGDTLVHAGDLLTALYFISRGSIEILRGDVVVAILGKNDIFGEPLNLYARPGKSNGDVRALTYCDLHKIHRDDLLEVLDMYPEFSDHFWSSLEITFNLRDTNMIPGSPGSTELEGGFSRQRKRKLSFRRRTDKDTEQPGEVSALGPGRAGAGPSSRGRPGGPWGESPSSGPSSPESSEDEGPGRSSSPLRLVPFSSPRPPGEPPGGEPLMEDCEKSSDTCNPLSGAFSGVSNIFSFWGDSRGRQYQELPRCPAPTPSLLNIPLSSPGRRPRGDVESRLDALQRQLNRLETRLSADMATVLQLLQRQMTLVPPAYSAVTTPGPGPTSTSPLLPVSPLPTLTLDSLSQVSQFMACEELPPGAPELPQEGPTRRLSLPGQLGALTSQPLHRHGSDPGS

Turning to `CCN(c1nc(-c2ccc(F)cc2)c(C#N)s1)c1c2nc(-c3cnc(N4CCCS4(=O)=O)nc3)ccc2nn1CC` [Example 17, 2-((5-(2-(1,1-dioxidoisothiazolidin-2-yl)pyrimidin-5-yl)-2-ethyl-2H-pyrazolo[4,3-b]pyridin-3-yl)(ethyl)amino)-4-(4-fluorophenyl)thiazole-5-carbonitrile], the pIC50 in data set [1] was 8.13. In data set [2] (IV 2 mg/kg), this compound returned a Cl_F_pred of 7.17 mL/min/kg, an AUC(0-inf) of 4720 ng·h/mL, an exposure AUC(0-t) of 4680 ng·h/mL and a Cmax of 2540 ng/mL. Further, in data set [2] (IV 2 mg/kg), the half-life was 4 h. In data set [2] (PO 10 mg/kg), this compound registered a Cl_F_pred of 18.2 mL/min/kg, a total exposure AUC(0-inf) of 9180 ng·h/mL, an exposure AUC(0-t) of 9030 ng·h/mL and a Cmax of 1030 ng/mL. Besides, in data set [2] (PO 10 mg/kg), the time of peak concentration (Tmax) stood at 4 h and the half-life is 3.7 h. Moreover, the F in data set [2] is on record as 38.5%. Besides, in data set [3], the negative logarithm of the IC50 (pIC50) is less than 4.52. Further, in data set [4], the negative logarithm of the IC50 (pIC50) is less than 4.00.

As for `CCN(c1nc(-c2ccc(F)cc2)c(C#N)s1)c1c2nc(-c3cnc(N4CC(O)C4)nc3)ccc2nn1CC` [Example 23, 2-(ethyl(2-ethyl-5-(2-(3-hydroxyazetidin-1-yl)pyrimidin-5-yl)-2H-pyrazolo[4,3-b]pyridin-3-yl)amino)-4-(4-fluorophenyl)thiazole-5-carbonitrile], the negative logarithm of the IC50 (pIC50) in data set [1] is 7.96; in data set [4], less than 4.00.

Consider `CCN(c1nc(-c2ccc(F)cc2)c(C#N)s1)c1c2nc(-c3cnc(N4CCOCC4)nc3)ccc2nn1CC` [Example 29, 2-(ethyl(2-ethyl-5-(2-morpholinopyrimidin-5-yl)-2H-pyrazolo[4,3-b]pyridin-3-yl)amino)-4-(4-fluorophenyl)thiazole-5-carbonitrile], for which the negative logarithm of the IC50 (pIC50) in data set [1] was 7.64. In addition, in data set [2] (IV 2 mg/kg), the Cl_F_pred was 4.83 mL/min/kg, the area under the curve AUC(0-inf) was found to be 7220 ng·h/mL, the exposure AUC(0-t) worked out at 6840 ng·h/mL and the concentration peaked (Cmax) at 3480 ng/mL. Further, the half-life in data set [2] (IV 2 mg/kg) was 8.2 h. In data set [2] (PO 10 mg/kg), this compound showed a Cl_F_pred of 18.3 mL/min/kg, an AUC(0-inf) of 9150 ng·h/mL, an exposure AUC(0-t) of 7780 ng·h/mL and a Cmax of 847 ng/mL. For the same compound, in data set [2] (PO 10 mg/kg), the Tmax worked out at 3.3 h and the half-life is 9.2 h. This compound also registered a F in data set [2] of 11.2%. This compound also had a pIC50 in data set [3] of less than 4.52. In addition, in data set [4], the negative-log IC50 (pIC50) is less than 4.00.
